Measurements from article PMC10838953.

Assays:
[1] = target: MAP3K2 (Homo sapiens, UniProt Q9Y2U5); experiment: biochemical; conditions: read-out: %Ctrl @ 2000nM
[2] = target: NLK (Homo sapiens, UniProt Q9UBE8); experiment: biochemical; conditions: read-out: %Ctrl @ 2000nM
[3] = target: MERTK (Homo sapiens, UniProt Q12866); experiment: biochemical; conditions: read-out: %Ctrl @ 2000nM
[4] = target: CSNK1G2 (Homo sapiens, UniProt P78368); experiment: biochemical; conditions: read-out: %Ctrl @ 2000nM
[5] = target: RPS6KA4(Kin.Dom.2-C-terminal) (Homo sapiens, UniProt O75676); experiment: biochemical; conditions: read-out: %Ctrl @ 2000nM
[6] = target: MEK5 (Homo sapiens, UniProt Q13163); experiment: biochemical; conditions: read-out: %Ctrl @ 2000nM
[7] = target: MST1 (Homo sapiens, UniProt Q13043); experiment: biochemical; conditions: read-out: %Ctrl @ 2000nM
[8] = target: HIPK2 (Homo sapiens, UniProt Q9H2X6); experiment: biochemical; conditions: read-out: %Ctrl @ 2000nM
[9] = target: ERK8 (Homo sapiens, UniProt Q8TD08); experiment: biochemical; conditions: read-out: %Ctrl @ 2000nM
[10] = system: 786-O cells; conditions: 48 h
[11] = target: CSK (Homo sapiens, UniProt P41240); experiment: biochemical; conditions: read-out: %Ctrl @ 2000nM
[12] = target: KIT(D816V) (Homo sapiens, UniProt P10721, D816V); experiment: biochemical; conditions: read-out: %Ctrl @ 2000nM
[13] = target: ERBB3 (Homo sapiens, UniProt P21860); experiment: biochemical; conditions: read-out: %Ctrl @ 2000nM
[14] = target: IGF1R (Homo sapiens, UniProt P08069); experiment: biochemical; conditions: read-out: %Ctrl @ 2000nM
[15] = target: PIK3CA (Homo sapiens, UniProt P42336); experiment: biochemical; conditions: read-out: %Ctrl @ 2000nM
[16] = target: RIPK5 (Homo sapiens, UniProt Q6XUX3); experiment: biochemical; conditions: read-out: %Ctrl @ 2000nM
[17] = system: AKT (S129); conditions: HEK293 cells; 48 h
[18] = target: CSNK1D (Homo sapiens, UniProt P48730); experiment: biochemical; conditions: read-out: %Ctrl @ 2000nM
[19] = target: SNARK (Homo sapiens, UniProt Q9H093); experiment: biochemical; conditions: read-out: %Ctrl @ 2000nM
[20] = target: MST1R (Homo sapiens, UniProt Q04912); experiment: biochemical; conditions: read-out: %Ctrl @ 2000nM
[21] = target: ANKK1 (Homo sapiens, UniProt Q8NFD2); experiment: biochemical; conditions: read-out: %Ctrl @ 2000nM
[22] = target: PLK3 (Homo sapiens, UniProt Q9H4B4); experiment: biochemical; conditions: read-out: %Ctrl @ 2000nM
[23] = target: ADCK3 (Homo sapiens, UniProt Q8NI60); experiment: biochemical; conditions: read-out: %Ctrl @ 2000nM
[24] = system: tumor slices of clear cell renal carcinoma (786-O-luc xenograft); conditions: 10 μM CX-4945, 5 μM AB668
[25] = target: FGFR3(G697C) (Homo sapiens, UniProt P22607, G697C); experiment: biochemical; conditions: read-out: %Ctrl @ 2000nM
FGFR3(G697C), sequence (P22607 23-806 G697C): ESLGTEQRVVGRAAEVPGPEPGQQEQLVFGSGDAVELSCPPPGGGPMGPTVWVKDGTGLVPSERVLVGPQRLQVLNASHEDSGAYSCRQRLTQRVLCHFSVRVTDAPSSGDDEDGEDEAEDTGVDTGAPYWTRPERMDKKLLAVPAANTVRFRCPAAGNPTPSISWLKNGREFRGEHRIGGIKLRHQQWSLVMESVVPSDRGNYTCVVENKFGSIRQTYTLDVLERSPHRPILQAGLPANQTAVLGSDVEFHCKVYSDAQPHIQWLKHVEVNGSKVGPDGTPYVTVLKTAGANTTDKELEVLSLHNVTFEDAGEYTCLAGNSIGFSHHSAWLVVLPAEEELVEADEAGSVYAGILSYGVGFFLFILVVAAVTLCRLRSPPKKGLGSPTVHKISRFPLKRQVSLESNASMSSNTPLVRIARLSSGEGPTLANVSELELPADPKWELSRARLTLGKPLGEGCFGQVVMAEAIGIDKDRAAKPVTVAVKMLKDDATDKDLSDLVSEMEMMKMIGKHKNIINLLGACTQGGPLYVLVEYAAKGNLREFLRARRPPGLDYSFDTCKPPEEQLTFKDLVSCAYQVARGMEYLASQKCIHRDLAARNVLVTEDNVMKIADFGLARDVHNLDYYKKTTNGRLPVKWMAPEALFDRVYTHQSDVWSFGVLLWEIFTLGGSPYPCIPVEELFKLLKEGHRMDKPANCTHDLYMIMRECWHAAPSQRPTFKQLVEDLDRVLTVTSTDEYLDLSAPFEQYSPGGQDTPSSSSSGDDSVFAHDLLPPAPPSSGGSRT

[26] = target: TIE1 (Homo sapiens, UniProt P35590); experiment: biochemical; conditions: read-out: %Ctrl @ 2000nM
[27] = target: PIK3CA(I800L) (Homo sapiens, UniProt P42336, I800L); experiment: biochemical; conditions: read-out: %Ctrl @ 2000nM
[28] = target: ADCK4 (Homo sapiens, UniProt Q96D53); experiment: biochemical; conditions: read-out: %Ctrl @ 2000nM
[29] = target: PKAC-alpha (Homo sapiens, UniProt P17612); experiment: biochemical; conditions: read-out: %Ctrl @ 2000nM
[30] = system: primary hepatocytes; experiment: cells; conditions: Hepatocyte, read-out: IC50 cell viability
[31] = target: KIT (Homo sapiens, UniProt P10721); experiment: biochemical; conditions: read-out: %Ctrl @ 2000nM
[32] = target: ALK (Homo sapiens, UniProt Q9UM73); experiment: biochemical; conditions: read-out: %Ctrl @ 2000nM
ALK, sequence (Q9UM73 19-1620): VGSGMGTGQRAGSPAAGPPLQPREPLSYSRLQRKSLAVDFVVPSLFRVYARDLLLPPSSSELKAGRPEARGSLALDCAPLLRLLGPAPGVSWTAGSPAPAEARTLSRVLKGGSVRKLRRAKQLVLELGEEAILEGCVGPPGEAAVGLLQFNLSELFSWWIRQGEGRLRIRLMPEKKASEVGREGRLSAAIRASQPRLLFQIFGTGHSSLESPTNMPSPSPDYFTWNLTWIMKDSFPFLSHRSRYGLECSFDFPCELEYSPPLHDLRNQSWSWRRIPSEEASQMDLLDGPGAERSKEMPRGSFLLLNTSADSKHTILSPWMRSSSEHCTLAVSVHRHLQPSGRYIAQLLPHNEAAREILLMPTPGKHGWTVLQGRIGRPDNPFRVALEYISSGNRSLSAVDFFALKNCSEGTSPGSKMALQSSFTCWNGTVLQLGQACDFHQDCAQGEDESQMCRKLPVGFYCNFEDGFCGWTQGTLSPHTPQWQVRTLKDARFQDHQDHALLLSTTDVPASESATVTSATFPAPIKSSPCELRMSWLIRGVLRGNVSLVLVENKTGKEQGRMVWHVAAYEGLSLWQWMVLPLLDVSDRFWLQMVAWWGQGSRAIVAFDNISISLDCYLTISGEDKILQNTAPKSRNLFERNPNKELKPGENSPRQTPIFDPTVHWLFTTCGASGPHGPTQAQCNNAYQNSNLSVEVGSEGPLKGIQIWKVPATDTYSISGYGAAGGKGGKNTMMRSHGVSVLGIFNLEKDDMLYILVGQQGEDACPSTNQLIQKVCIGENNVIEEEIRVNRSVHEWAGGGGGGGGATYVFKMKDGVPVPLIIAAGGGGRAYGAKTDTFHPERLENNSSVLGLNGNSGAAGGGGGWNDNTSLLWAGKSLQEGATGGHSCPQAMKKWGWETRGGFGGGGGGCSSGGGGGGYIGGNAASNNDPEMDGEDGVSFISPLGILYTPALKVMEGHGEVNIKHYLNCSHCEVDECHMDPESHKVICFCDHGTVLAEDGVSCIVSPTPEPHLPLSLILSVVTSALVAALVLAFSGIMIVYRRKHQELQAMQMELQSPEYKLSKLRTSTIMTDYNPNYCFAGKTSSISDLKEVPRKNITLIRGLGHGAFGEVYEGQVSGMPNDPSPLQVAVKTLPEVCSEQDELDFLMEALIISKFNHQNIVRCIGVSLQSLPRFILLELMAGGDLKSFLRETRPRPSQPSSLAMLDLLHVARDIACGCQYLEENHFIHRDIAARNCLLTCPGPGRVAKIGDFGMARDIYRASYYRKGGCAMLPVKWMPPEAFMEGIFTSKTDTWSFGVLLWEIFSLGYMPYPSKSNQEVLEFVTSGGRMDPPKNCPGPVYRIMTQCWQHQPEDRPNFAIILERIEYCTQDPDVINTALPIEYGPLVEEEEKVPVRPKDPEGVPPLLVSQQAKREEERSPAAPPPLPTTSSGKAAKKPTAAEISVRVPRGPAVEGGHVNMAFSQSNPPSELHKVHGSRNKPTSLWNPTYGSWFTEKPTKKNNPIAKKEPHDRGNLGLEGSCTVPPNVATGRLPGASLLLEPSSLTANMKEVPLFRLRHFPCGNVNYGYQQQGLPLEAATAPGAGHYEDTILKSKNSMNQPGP

[33] = target: SRPK1 (Homo sapiens, UniProt Q96SB4); experiment: biochemical; conditions: read-out: %Ctrl @ 2000nM
[34] = target: DYRK1B (Homo sapiens, UniProt Q9Y463); experiment: biochemical; conditions: read-out: %Ctrl @ 2000nM
[35] = target: CAMK2G (Homo sapiens, UniProt Q13555); experiment: biochemical; conditions: read-out: %Ctrl @ 2000nM
[36] = target: FLT4 (Homo sapiens, UniProt P35916); experiment: biochemical; conditions: read-out: %Ctrl @ 2000nM
[37] = target: TGFBR2 (Homo sapiens, UniProt P37173); experiment: biochemical; conditions: read-out: %Ctrl @ 2000nM
[38] = target: MST3 (Homo sapiens, UniProt Q9Y6E0); experiment: biochemical; conditions: read-out: %Ctrl @ 2000nM
[39] = target: MAP3K15 (Homo sapiens, UniProt Q6ZN16); experiment: biochemical; conditions: read-out: %Ctrl @ 2000nM
[40] = target: MET(M1250T) (Homo sapiens, UniProt P08581, M1250T); experiment: biochemical; conditions: read-out: %Ctrl @ 2000nM
MET(M1250T), sequence (P08581 25-1390 M1250T): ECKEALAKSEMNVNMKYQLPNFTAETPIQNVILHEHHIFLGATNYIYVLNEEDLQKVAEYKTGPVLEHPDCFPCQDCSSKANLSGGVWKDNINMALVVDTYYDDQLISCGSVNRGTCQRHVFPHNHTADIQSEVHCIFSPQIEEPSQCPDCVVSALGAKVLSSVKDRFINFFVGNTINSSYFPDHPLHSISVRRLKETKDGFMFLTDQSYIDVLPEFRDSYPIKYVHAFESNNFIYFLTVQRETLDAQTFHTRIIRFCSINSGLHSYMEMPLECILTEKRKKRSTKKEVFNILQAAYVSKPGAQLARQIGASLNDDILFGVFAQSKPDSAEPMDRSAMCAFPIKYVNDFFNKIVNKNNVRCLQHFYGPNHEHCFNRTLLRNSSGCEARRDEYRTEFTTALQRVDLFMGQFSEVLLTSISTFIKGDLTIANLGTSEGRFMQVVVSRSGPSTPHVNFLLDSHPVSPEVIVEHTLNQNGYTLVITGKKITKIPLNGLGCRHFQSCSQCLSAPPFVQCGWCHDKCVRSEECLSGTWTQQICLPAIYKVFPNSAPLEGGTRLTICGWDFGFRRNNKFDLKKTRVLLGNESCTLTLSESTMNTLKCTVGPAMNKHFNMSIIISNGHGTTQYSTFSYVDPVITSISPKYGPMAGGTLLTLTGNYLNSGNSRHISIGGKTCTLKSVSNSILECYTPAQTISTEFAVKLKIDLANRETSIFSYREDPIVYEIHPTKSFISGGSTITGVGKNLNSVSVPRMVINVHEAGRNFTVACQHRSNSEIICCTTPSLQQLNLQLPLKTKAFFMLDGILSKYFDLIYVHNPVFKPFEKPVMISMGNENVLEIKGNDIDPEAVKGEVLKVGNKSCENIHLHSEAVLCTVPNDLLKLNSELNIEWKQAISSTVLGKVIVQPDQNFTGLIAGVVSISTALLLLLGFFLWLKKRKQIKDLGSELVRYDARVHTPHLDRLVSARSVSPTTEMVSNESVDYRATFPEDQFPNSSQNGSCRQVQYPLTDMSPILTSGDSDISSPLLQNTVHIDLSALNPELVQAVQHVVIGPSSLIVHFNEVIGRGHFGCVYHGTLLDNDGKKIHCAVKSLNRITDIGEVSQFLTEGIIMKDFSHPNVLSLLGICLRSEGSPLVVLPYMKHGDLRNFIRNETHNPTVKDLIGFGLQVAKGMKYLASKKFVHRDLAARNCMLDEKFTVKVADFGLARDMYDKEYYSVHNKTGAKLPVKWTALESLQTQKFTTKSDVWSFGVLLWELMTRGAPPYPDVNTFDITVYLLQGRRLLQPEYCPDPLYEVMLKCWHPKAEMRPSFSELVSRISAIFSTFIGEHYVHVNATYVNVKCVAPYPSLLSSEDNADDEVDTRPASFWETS

[41] = target: SRMS (Homo sapiens, UniProt Q9H3Y6); experiment: biochemical; conditions: read-out: %Ctrl @ 2000nM
[42] = target: ACVRL1 (Homo sapiens, UniProt P37023); experiment: biochemical; conditions: read-out: %Ctrl @ 2000nM
[43] = target: TIE2 (Homo sapiens, UniProt Q02763); experiment: biochemical; conditions: read-out: %Ctrl @ 2000nM

MERTK, sequence (Q12866 21-999): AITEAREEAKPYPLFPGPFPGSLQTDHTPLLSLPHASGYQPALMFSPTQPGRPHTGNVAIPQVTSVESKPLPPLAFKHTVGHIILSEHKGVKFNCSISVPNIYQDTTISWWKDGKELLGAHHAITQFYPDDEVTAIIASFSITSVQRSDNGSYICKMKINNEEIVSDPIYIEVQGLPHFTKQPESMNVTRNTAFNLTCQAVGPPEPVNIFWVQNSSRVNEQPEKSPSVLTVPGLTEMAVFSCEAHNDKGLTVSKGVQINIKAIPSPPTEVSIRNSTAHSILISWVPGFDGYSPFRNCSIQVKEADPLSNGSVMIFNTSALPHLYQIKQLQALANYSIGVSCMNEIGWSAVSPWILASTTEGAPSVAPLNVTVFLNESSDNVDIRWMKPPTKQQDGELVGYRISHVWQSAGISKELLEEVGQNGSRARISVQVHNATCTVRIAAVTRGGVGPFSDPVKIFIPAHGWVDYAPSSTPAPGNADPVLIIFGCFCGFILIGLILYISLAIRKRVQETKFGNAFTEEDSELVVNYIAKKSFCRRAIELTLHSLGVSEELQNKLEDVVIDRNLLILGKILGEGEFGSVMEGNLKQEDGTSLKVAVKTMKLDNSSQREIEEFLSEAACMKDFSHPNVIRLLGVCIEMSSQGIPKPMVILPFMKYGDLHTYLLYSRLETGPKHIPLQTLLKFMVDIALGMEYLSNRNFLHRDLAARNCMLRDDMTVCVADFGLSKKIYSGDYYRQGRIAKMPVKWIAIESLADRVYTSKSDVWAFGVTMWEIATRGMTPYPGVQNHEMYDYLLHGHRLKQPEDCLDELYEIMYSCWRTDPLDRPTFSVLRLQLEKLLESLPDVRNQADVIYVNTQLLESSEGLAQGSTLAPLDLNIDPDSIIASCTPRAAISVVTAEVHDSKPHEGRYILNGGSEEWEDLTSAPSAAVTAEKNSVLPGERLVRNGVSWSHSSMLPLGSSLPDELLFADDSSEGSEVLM

CC(C)COC(=O)c1[nH]c2ccc(F)cc2c1-c1cn(CC2CCN(CCNS(=O)(=O)c3ccc(CC(C)C)cc3)CC2)nn1 [AB668, isobutyl 5-fluoro-3-(1-((1-(2-((4-isobutylphenyl)sulfonamido)ethyl)piperidin-4-yl)methyl)-1H-1,2,3-triazol-4-yl)-1H-indole-2-carboxylate]
remaining activity at 2 µM [1]: 93% | remaining activity at 2 µM [2]: 77% | remaining activity at 2 µM [3]: 96% | remaining activity at 2 µM [4]: 75% | remaining activity at 2 µM [5]: 97% | remaining activity at 2 µM [6]: 100% | remaining activity at 2 µM [7]: 97% | remaining activity at 2 µM [8]: 100% | remaining activity at 2 µM [9]: 53% | proliferation, cell death and apoptosis ([10]; 4 μM): induced significant cell proliferation arrest associated with cell death and apoptosis | renal cancer cell death, dose dependent ([10]; low concentration (<5μM)): more efficient than CX-4945 and SGC-CK2-1 | remaining activity at 2 µM [11]: 95% | remaining activity at 2 µM [12]: 95% | remaining activity at 2 µM [13]: 94% | remaining activity at 2 µM [14]: 73% | remaining activity at 2 µM [15]: 82% | remaining activity at 2 µM [16]: 95% | AKT phosphorylation [17]: weakly affected | remaining activity at 2 µM [18]: 89% | remaining activity at 2 µM [19]: 94% | remaining activity at 2 µM [20]: 97% | remaining activity at 2 µM [21]: 100% | remaining activity at 2 µM [22]: 93% | remaining activity at 2 µM [23]: 86% | cell viability of tumor slices [24]: significantly reduced cell viability | remaining activity at 2 µM [25]: 100% | remaining activity at 2 µM [26]: 89% | remaining activity at 2 µM [27]: 98% | remaining activity at 2 µM [28]: 80% | remaining activity at 2 µM [29]: 84% | IC50 [30]: > 100 µM | remaining activity at 2 µM [31]: 95% | remaining activity at 2 µM [32]: 91% | remaining activity at 2 µM [33]: 88% | remaining activity at 2 µM [34]: 83% | remaining activity at 2 µM [35]: 78% | remaining activity at 2 µM [36]: 98% | remaining activity at 2 µM [37]: 90% | remaining activity at 2 µM [38]: 100% | remaining activity at 2 µM [39]: 51% | remaining activity at 2 µM [40]: 90% | remaining activity at 2 µM [41]: 93% | remaining activity at 2 µM [42]: 90% | remaining activity at 2 µM [43]: 83%
